Data reported in ChEMBL document CHEMBL1124625, “Flavones. 2. Synthesis and structure-activity relationship of flavodilol and its analogues, a novel class of antihypertensive agents with catecholamine depleting properties” (J Med Chem, 1989).

Tests used:
[1] = system: Rattus norvegicus; assay: % decrease in hypothalamus dopamine in anesthetized spontaneously hypertensive rats(SHR) at 5 hours after administration of 4 mg/kg dose perorally; type: functional; settings: route oral
[2] = system: Rattus norvegicus; assay: % decrease in heart 5-HT in anesthetized spontaneously hypertensive rats(SHR) at 5 hours after administration of 35 mg/kg dose perorally; value significantly different was control; type: functional; settings: route oral
[3] = system: Rattus norvegicus; assay: % decrease in heart norepinephrine in anesthetized spontaneously hypertensive rats(SHR) at 5 hours after administration of 17.5 mg/kg dose perorally; type: functional; settings: route oral
[4] = system: Rattus norvegicus; assay: % decrease in hypothalamus norepinephrine in anesthetized spontaneously hypertensive rats(SHR) at 5 hours after administration of 35 mg/kg dose perorally; type: functional; settings: route oral
[5] = system: Rattus norvegicus; assay: % decrease in hypothalamus DA in anesthetized spontaneously hypertensive rats(SHR) at 5 hours after administration of 35 mg/kg dose perorally; settings: route oral
[6] = system: Rattus norvegicus; assay: % decrease in heart norepinephrine in anesthetized spontaneously hypertensive rats(SHR) at 5 hours after administration of 8 mg/kg dose perorally; type: functional; settings: route oral
[7] = system: Rattus norvegicus; assay: % decrease in systolic blood pressure (SBP) in anesthetized spontaneously hypertensive rats(SHR) after administration of 8 mg/kg dose perorally; settings: route oral
[8] = system: Rattus norvegicus; assay: % decrease in hypothalamus dopamine in anesthetized spontaneously hypertensive rats(SHR) at 5 hours after administration of 8 mg/kg dose perorally; type: functional; settings: route oral
[9] = system: Rattus norvegicus; assay: % decrease in heart 5-HT in anesthetized spontaneously hypertensive rats(SHR) at 5 hours after administration of 75 mg/kg dose perorally; value significantly different was control; type: functional; settings: route oral
[10] = system: Rattus norvegicus; assay: % decrease in heart 5-HT in anesthetized spontaneously hypertensive rats(SHR) at 5 hours after administration of 17.5 mg/kg dose perorally; value significantly different was control; type: functional; settings: route oral
[11] = system: Rattus norvegicus; assay: % decrease in hypothalamus dopamine in anesthetized spontaneously hypertensive rats(SHR) at 5 hours after administration of 75 mg/kg dose perorally; type: functional; settings: route oral
[12] = system: Rattus norvegicus; assay: Systolic blood pressure (SBP) in anesthetized spontaneously hypertensive rats(SHR) at 7.5 hours after administration of 75 mg/kg dose perorally; settings: route oral
[13] = system: Rattus norvegicus; assay: % decrease in hypothalamus norepinephrine in anesthetized spontaneously hypertensive rats(SHR) at 5 hours after administration of 8 mg/kg dose perorally; type: functional; settings: route oral
[14] = system: Rattus norvegicus; assay: Systolic blood pressure (SBP) in anesthetized spontaneously hypertensive rats(SHR) before administration of 17 mg/kg dose, perorally; type: functional; settings: route oral
[15] = system: Rattus norvegicus; assay: % decrease in heart norepinephrine in anesthetized spontaneously hypertensive rats(SHR) at 5 hours after administration of 35 mg/kg dose perorally; type: functional; settings: route oral
[16] = system: Rattus norvegicus; assay: % decrease in hypothalamus norepinephrine in anesthetized spontaneously hypertensive rats(SHR) at 5 hours after administration of 4 mg/kg dose perorally; type: functional; settings: route oral
[17] = system: Rattus norvegicus; assay: % decrease in heart 5-HT in anesthetized spontaneously hypertensive rats(SHR) at 5 hours after administration of 4 mg/kg dose perorally; type: functional; settings: route oral
[18] = system: Rattus norvegicus; assay: % decrease in systolic blood pressure (SBP) in anesthetized spontaneously hypertensive rats(SHR) after administration of 75 mg/kg dose perorally; settings: route oral
[19] = system: Rattus norvegicus; assay: % decrease in heart norepinephrine in anesthetized spontaneously hypertensive rats(SHR) at 5 hours after administration of 4 mg/kg dose perorally; type: functional; settings: route oral
[20] = system: Rattus norvegicus; assay: % decrease in hypothalamus norepinephrine in anesthetized spontaneously hypertensive rats(SHR) at 5 hours after administration of 17.5 mg/kg dose perorally; type: functional; settings: route oral
[21] = system: Rattus norvegicus; assay: % decrease in hypothalamus norepinephrine in anesthetized spontaneously hypertensive rats(SHR) at 5 hours after administration of 75 mg/kg dose perorally; type: functional; settings: route oral
[22] = system: Rattus norvegicus; assay: Systolic blood pressure (SBP) in anesthetized spontaneously hypertensive rats (SHR) before administration of 75 mg/kg dose perorally.; type: functional; design: unit: mmHg; settings: route oral
[23] = system: Rattus norvegicus; assay: % decrease in heart 5-HT in anesthetized spontaneously hypertensive rats(SHR) at 5 hours after administration of 8 mg/kg dose perorally; type: functional; settings: route oral
[24] = system: Rattus norvegicus; assay: Systolic blood pressure (SBP) in anesthetized spontaneously hypertensive rats(SHR) at 7.5 hours after administration of 17 mg/kg dose, perorally; type: functional; settings: route oral
[25] = system: Rattus norvegicus; assay: % decrease in heart norepinephrine in anesthetized spontaneously hypertensive rats(SHR) at 5 hours after administration of 75 mg/kg dose perorally; type: functional; settings: route oral
[26] = system: Rattus norvegicus; assay: Systolic blood pressure (SBP) in anesthetized spontaneously hypertensive rats(SHR) at 7.5 hours after administration of 35 mg/kg dose perorally; type: functional; settings: route oral
[27] = system: Rattus norvegicus; assay: % decrease in hypothalamus dopamine in anesthetized spontaneously hypertensive rats(SHR) at 5 hours after administration of 17.5 mg/kg dose perorally; type: functional; settings: route oral
[28] = system: Rattus norvegicus; assay: Systolic blood pressure (SBP) in anesthetized spontaneously hypertensive rats(SHR) before administration of 35 mg/kg dose perorally; type: functional; settings: route oral
[29] = system: Rattus norvegicus; assay: % decrease in systolic blood pressure (SBP) in anesthetized spontaneously hypertensive rats(SHR) after administration of 17.5 mg/kg dose perorally; data statistically significant; settings: route oral
[30] = molecular target: Adrenergic receptor beta (Rattus norvegicus, UniProt P18090+P10608+P26255)
Description: Inhibition constant from beta adrenergic receptor binding assay

[31] = system: Rattus norvegicus; assay: % decrease in systolic blood pressure (SBP) in anesthetized spontaneously hypertensive rats(SHR) after administration of 4 mg/kg dose perorally; settings: route oral
[32] = system: Rattus norvegicus; assay: % decrease in heart norepinephrine in anesthetized spontaneously hypertensive rats(SHR) at 5 hours after administration of 150 mg/kg dose perorally; type: functional; settings: route oral
[33] = system: Rattus norvegicus; assay: Systolic blood pressure (SBP) in anesthetized spontaneously hypertensive rats(SHR) at 7.5 hours after administration of 75 mg/kg dose perorally; NS is not statistically significant.
[34] = system: Rattus norvegicus; assay: % decrease in heart 5-HT in anesthetized spontaneously hypertensive rats(SHR) at 5 hours after administration of 150 mg/kg dose perorally; type: functional; settings: route oral
[35] = system: Rattus norvegicus; assay: % decrease in hypothalamus norepinephrine in anesthetized spontaneously hypertensive rats(SHR) at 5 hours after administration of 150 mg/kg dose perorally; type: functional; settings: route oral
[36] = system: Rattus norvegicus; assay: % decrease in systolic blood pressure (SBP) in anesthetized spontaneously hypertensive rats(SHR) after administration of 150 mg/kg dose perorally; settings: route oral
[37] = system: Rattus norvegicus; assay: % decrease in heart 5-HT in anesthetized spontaneously hypertensive rats(SHR) at 5 hours after administration of 75 mg/kg dose perorally; type: functional; settings: route oral
[38] = system: Rattus norvegicus; assay: % decrease in hypothalamus DA in anesthetized spontaneously hypertensive rats(SHR) at 5 hours after administration of 150 mg/kg dose perorally; settings: route oral
[39] = system: Rattus norvegicus; assay: % decrease in hypothalamus DA in anesthetized spontaneously hypertensive rats(SHR) at 5 hours after administration of 75 mg/kg dose perorally; *value significantly different was control.; settings: route oral

SMILES: CCCNCC(O)COc1ccc2c(=O)cc(-c3ccccc3)oc2c1 (stereo not drawn) [FLAVODILOL]
- Decrease [1]: 4%
- Decrease [2]: 61%
- Decrease in heart norepinephrine [3]: 79%
- Decrease in hypothalamus norepinephrine [4]: 19%
- % decrease hypothalamus DA [5]: 37%
- Decrease in heart norepinephrine [6]: 38%
- % decrease SBP [7]: 3%
- Decrease [8]: -6%
- Decrease [9]: 63%
- Decrease [10]: 49%
- Decrease [11]: 38%
- Decrease in Systolic blood pressure [12]: 32%
- Decrease in hypothalamus norepinephrine [13]: 0%
- Systolic blood pressure [14]: 199
- Decrease in heart norepinephrine [15]: 89%
- Decrease in hypothalamus norepinephrine [16]: 2%
- Decrease [17]: -10%
- % decrease SBP [18]: 31%
- Decrease in heart norepinephrine [19]: 21%
- Decrease in hypothalamus norepinephrine [20]: 6%
- Decrease in hypothalamus norepinephrine [21]: 15%
- Systolic blood pressure [22]: 203
- Decrease [23]: 11%
- Decrease in Systolic blood pressure [24]: 15%
- Decrease in heart norepinephrine [25]: 94%
- Decrease in Systolic blood pressure [26]: 27%
- Decrease [27]: 31%
- Systolic blood pressure [28]: 196
- % decrease SBP [29]: 6%
- Ki [30]: 4 nM
- % decrease SBP [31]: 7%

SMILES: CN(C)CC(O)COc1ccc2c(=O)cc(-c3ccccc3)oc2c1 (stereo not drawn)
- Decrease [32]: 7%
- Decrease in Systolic blood pressure [33]: Not significant
- Decrease [34]: 0%
- % decrease SBP [18]: 0%
- Decrease [35]: 37%
- Decrease [21]: 20%
- Systolic blood pressure [22]: 207
- Decrease [25]: 18%
- % decrease SBP [36]: 5%
- Decrease [37]: 0%
- % decrease hypothalamus DA [38]: 47%
- % decrease hypothalamus DA [39]: 29%
